Residues, ends and D or L forms follow the SMILES beside them. *: point of attachment. AFC = O=c1cc(C(F)(F)F)c2ccc(N*)cc2o1; Cbz = O=C(OCc1ccccc1)*
Columns and labels:
[1] = system: purified Taenia solium cysteine protease; assay: Competitor assay of low Vmax substrates (vehicles) against high Vmax substrate cocktails (Step III), purified protease; type: biochemical; conditions: for inhibition with the 1.4% cocktail: 1.4% cocktail (Z-FR-AFC 1X10^-6 M); for inhibition with the final cocktail (7.4%): 7.4% cocktail (five high Vmax substrates, 1X10^-6 M each); for Ki of vehicle: Dixon plot, data not shown
Method: The top 1.4% of substrates (out of 67) in the full panel of substrates with the highest Vmax values were chosen to compose a "TOP 1.4% cocktail". (We employed "Vmax" here although Kcat could also be used). Due to the lower number of substrates, a percentage was not chosen for the "BOTTOM %" substrates. Alternately, all substrates which were not cleaved as determined by a value of 10 uM/hr or less, were chosen to be tested in this step for competitive ability. Hereinafter the term "vehicle" will represent low Vmax substrates that were capable of inhibiting cleavage of the percent cocktails. In this instance, we tested for "vehicles" which inhibited cleavage of the TOP 1.4% cocktail (they were delivered into the active site). Based upon our results from Step II, the top 1.4% cocktail was composed of Z-Phe-Arg-AFC, the highest cleaved substrate.
The experiment began with a competitor test between the noncleaved low Vmax substrates and the highest Vmax substrate, Z-Phe-Arg-AFC. Concentrations were varied between the low Vmax substrate and Z-Phe-Arg-AFC, as described above under "refinement of assay" until a relative inhibition profile was obtained.
The mixture was allowed to equilibrate for a period of 30 minutes. Finally, active purified enzyme was added to the tubes at a concentration that was always 50 times less than the concentration of the high and low Vmax substrates, respectively, in order to insure saturation conditions. This concentration varied from purification to purification and the amount added depended upon the yield and specific activity of the purified protease.
Positive controls were set up in a manner similar to that described for test controls, except that solvent was added in substitution for the low Vmax substrate (in a volume equal to the low Vmax volume addition). All of the substrates could be dissolved in dimethylsulfoxide (DMSO), and therefore, this was the solvent of choice. Negative controls were set up by adding the low Vmax and the high Vmax substrate in a tube without the protease. All potential non-proteolytic induced liberation of AFC was therefore controlled for in this tube (a feature which also monitored stability of the AFC substrates, since these substrates will freely liberate AFC when unstable). A tube set was established for this negative control.
All controls were set up in triplicate, and experiments were repeated a minimum of five times. The assays were incubated at 37°C, for 18 hours overnight.
Percent inhibition was calculated as: %Inhibition = ((AFC positive for "Y"−AFC negative for "Y")−(AFC test−AFC negative for "Y"))/(AFC positive for "Y"−AFC negative for "Y") × 100 [formula]
A 2.9% cocktail of the high Vmax substrates was made. This was composed of Z-FR-AFC and the second most cleaved substrate, Z-FAR-AFC. The vehicles promoted from the initial screenings above were again tested for competitive inhibition ability with the new cocktails. Their concentrations were set identically to those which were "fixed" in the previous protocols. In other words, 8X10^-6 M of the vehicle was added to the culture tube with 1X10^-6 M of Z-FR-AFC and 1X10^-6 M of Z-FAR-AFC. Active protease was added last at a concentration that was 50 times less than the concentration of the high Vmax substrate (to ensure saturating conditions).
In similar experimental fashion, a 4.4%, 5.9%, and 7.4% cocktail were tested with each of the promising vehicles. Each increase in the percentage represented an increase by an additional high Vmax substrate. Each of the individual components in the cocktail were added at 1X10^-6 M each, to 8X10^-6 M of the vehicle. The composition of the cocktails was as follows: 4.4% cocktail: Z-FR-AFC, Z-FAR-AFC, and Z-AAK-AFC (third highest cleaved substrate); 5.9% cocktail: Z-FR-AFC, Z-FAR-AFC, Z-AAK-AFC, and AP-AFC (fourth highest cleaved substrate); 7.4% cocktail: […], Z-FAR-AFC, Z-AAK-AFC, AP-AFC, and Z-VLR-AFC. […]

[2] = system: Taenia solium crude mix; assay: Competitor assay of vehicles against high Vmax substrate cocktails (Step III), crude mix; type: biochemical
Text: Step III for a crude mix proceeds as it would for a purified protease, except that Vm is used instead of kcat.
One of the most intriguing findings in this experiment was that a highly similar inhibition pattern for the competitor assay resulted when the crude mix was employed as the source of the target protease. Although there were some variations in the effects of inhibitor dilution, the most highly ranked vehicles remained inhibitory consistently in comparison to the profile with the target protease. The relative profile and composition of the top tier of vehicles was identical. Z-LLL-AFC, Z-LLY-AFC, Mu-LY-AFC, Boc-VPR-AFC, Z-SY-AFC, Z-RR-AFC, Z-FLF-AFC, and Z-LGR-AFC consistently emerged as the top eight vehicles (Fig. 5b), respectively, based upon their V values (Table 2). […] It was notable that the three vehicles had very similar V values. […] As was mentioned, this vehicle along with Z-LLL-AFC and Z-LLY-AFC, were consistently the most inhibitory vehicles. The V values of the most inhibitory vehicle series are shown below in Table 2. Again, a clear break between the first and second tier vehicles is discernible for the V value. Table 2. Vehicles and V value rankings.

| Compound | inhibition with the 1.4% cocktail ([1]; vehicle 8X10^-6 M) | inhibition with the final cocktail (7.4%) ([1]; vehicle 8X10^-6 M) [%] | Ki of vehicle [1] | Tier [2] | V Value ([1]; V = P * M, P inhibition with first (1.4%) cocktail, M with last (7.4%) cocktail, vehicle 8X10^-6 M, each cocktail substrate 1X10^-6 M) |
| --- | --- | --- | --- | --- | --- |
| CC(C)C[C@H](NC(=O)OCc1ccccc1)C(=O)N[C@@H](CC(C)C)C(=O)N[C@@H](CC(C)C)C(=O)Nc1ccc2c(C(F)(F)F)cc(=O)oc2c1 [Z-LLL-AFC, Z-Leu-Leu-Leu-AFC] (Cbz-Leu-Leu-Leu-{AFC}) | greater than 20% | ≥ 50 | low Ki value | 1 (The first tier was composed of those vehicles that produced inhibition greater than 50% when in the presence of the 1.4% cocktail) |  |
| CC(C)C[C@H](NC(=O)OCc1ccccc1)C(=O)N[C@@H](CC(C)C)C(=O)N[C@@H](Cc1ccc(O)cc1)C(=O)Nc1ccc2c(C(F)(F)F)cc(=O)oc2c1 [Z-LLY-AFC, Z-Leu-Leu-Tyr-AFC] (Cbz-Leu-Leu-Tyr-{AFC}) | greater than 20% | ≥ 50 | low Ki value | 1 (The first tier was composed of those vehicles that produced inhibition greater than 50% when in the presence of the 1.4% cocktail) |  |
| Mu-Leu-Tyr-AFC [Mu-LY-AFC] |  | ≥ 50 | low Ki value | 1 (The first tier was composed of those vehicles that produced inhibition greater than 50% when in the presence of the 1.4% cocktail) | 0.450 |

Reference: patent EP1379634B1 (THE UNIVERSITY OF GEORGIA RESEARCH FOUNDATION, INC., priority 2001, dated 2002)
